Assays:
[1] = biological target: T1, AF-Est2 (Archaeoglobus fulgidus, UniProt O28735); assay: X-ray crystal structure, […] Å; type: binding; conditions: co-purified from expression host, not added; full occupancy; groove near active site, pantetheine in alcohol pocket
T1 construct: gene AF_1537; full-length, no stop codon, C-terminal 6xHis tag (pET24d, plasmid pWUR365), E. coli BL21-CodonPlus(DE3)-RIPL; tag kept

[2] = biological target: T1, AF-Est2; assay: p-nitrophenol release at […] nm, microplate, Michaelis-Menten fit; type: biochemical; conditions: 50 mM Tris-HCl pH 7.5, 30 °C; enzyme carries co-purified CoA
[3] = biological target: T1, AF-Est2; assay: phenol red pH-indicator assay at […] nm, Michaelis-Menten fit; type: biochemical; conditions: 1 mM HEPES pH 8.0; kcat is that at 70 °C (one KM printed for 70, 50 and 30 °C)

T1 sequence (O28735 entry or part of it): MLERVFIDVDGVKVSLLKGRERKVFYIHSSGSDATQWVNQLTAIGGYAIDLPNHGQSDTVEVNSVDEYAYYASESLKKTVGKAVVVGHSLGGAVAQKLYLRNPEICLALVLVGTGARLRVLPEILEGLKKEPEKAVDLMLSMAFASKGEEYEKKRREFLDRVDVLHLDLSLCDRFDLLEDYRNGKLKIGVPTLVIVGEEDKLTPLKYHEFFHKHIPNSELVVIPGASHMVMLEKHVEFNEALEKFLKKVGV

SMILES	Km [2]	further results
CC(C)(COP(=O)(O)OP(=O)(O)OC[C@H]1O[C@@H](n2cnc3c(N)ncnc32)[C@H](O)[C@@H]1OP(=O)(O)O)[C@@H](O)C(=O)NCCC(=O)NCCS [CoA]	–	X-ray crystal structure, 1.4 Å [1]: confirmed the full occupancy of this CoA ligand in the AF-Est2 structure
COC(=O)c1ccc(C)cc1 [methyl p-toluate]	–	Km [3]: 1500 ± 100 µM
CCC(=O)Oc1ccc([N+](=O)[O-])cc1 [C3, pNP-propionate]	254 ± 8 µM	–
CC(=O)Oc1ccc([N+](=O)[O-])cc1 [C2, pNP-acetate]	620 ± 10 µM	–

Further lines, with some results ahead:

Km [2]	SMILES	further results
92 ± 3 µM	CCCC(=O)Oc1ccc([N+](=O)[O-])cc1 [C4, pNP-butyrate]	–
19 ± 1 µM	CCCCC(=O)Oc1ccc([N+](=O)[O-])cc1 [C5, pNP-valerate]	–
120 ± 10 µM	CCCCCCCC(=O)Oc1ccc([N+](=O)[O-])cc1 [C8, pNP-caprylate]	–

From publication PMC4861933, “Structural and biochemical characterisation of Archaeoglobus fulgidus esterase reveals a bound CoA molecule in the vicinity of the active site” (Scientific Reports, 2016)
